In patent US8569382B2, “Isolated compounds from Phaleria macrocarpa as anti-cancer agents” (PT. Dexa Medica, priority 2008, dated 2013):
In brackets after ≈: the same amount, converted by molar mass.

Assays:
Type in all cases: cell-based
[1] = test system: MDA-MB-231 cancer cells; assay: Anti-proliferation assay of MDA-MB-231 cancer cells (MTT); conditions: for effect on proliferation of MDA-MB-231 cells (percentage of alive cancer cell): with increase of concentration, FIG. 7 (F1), FIG. 8 (E2.2)
Description: (§1) In this assay, the effect of E2.2 and F1 compounds as anti proliferation and E2.2 compound as apoptosis inducer against MDA-MB-231 cancer cells will be observed. MDA-MB-231 cells were cultured in supplemented medium cells, and then incubated at temperature 37° C., 5% CO2.
This assay was performed in 96-well plates. Each well contained certain cancer cell density. After incubation for 24 hours, medium was changed into serum free medium, after that it was added with E2.2 compound sample as a single agent in various concentrations, so was with F1 compound. Cells were then re-incubated and after that the number of alive cells after treatment was determined by cell death determination assay. Absorbance value was read in microplate reader. After the absorbance value was converted with standard curve, the number of alive and death cells can be obtained.
Percentage of the number of alive cells in each treatment can be counted by counting the number of alive cells at wells that received treatment divided with the number of alive cells at healthy control and multiplied with 100%. % The number of alive cells=B/A×100% Notes: A is the number of alive cells at healthy control, and B is the number of alive cells that received treatment. IC50 value is a number showing a sample concentration that causes death as much as 50% in a population. Such value is obtained using BioStat statistical program. b. DNA Fragmentation Analysis Method

[2] = test system: MDA-MB-231 cells; assay: DNA fragmentation analysis (DNA Apoptosis Ladder Kit, gel electrophoresis); conditions: MDA-MB-231 cells, 50, 75, and 100 μg/mL; FIG. 9
Description: as §1
Apoptosis is an active process of cell death marked with DNA chromosome cleavage, chromatin condensation, and also DNA fragmentation. In this experiment, it was observed the effect of E2.2 compound addition toward the formation of DNA fragmentation as one of apoptosis indicators. Cells were cultured in the plates. After incubation for 24 hours, it was added with E2.2 compound in various concentrations. DNA fragmentation determination was performed using DNA Apoptosis Ladder Kit.

[3] = test system: BCl2 mRNA expression; assay: BCl2 RT-PCR in MDA-MB-231 cells; conditions: various concentrations, serum free medium, FIGS. 10a, 10b
Description: (§2) BCl2 and Bax genes are genes acting in apoptosis process. To identify BCl2 and Bax mRNA expressions, RT-PCR (reverse-transcription PCR) was performed. MDA-MB-231 cancer cells were grown in plates and added with E2.2 compound samples as a single agent in various concentrations. Experiment condition was performed in serum free medium. RNA total was isolated from MDA-MB-231 cancer cells. RNA isolation products were quantified using spectrophotometer and visualized by agarose gel electrophoresis technique. The RNAs were then used in RT-PCR process using specific primers. RT-PCR process was performed in PCR machine with optimized condition.

[4] = test system: Bax mRNA expression; assay: Bax RT-PCR in MDA-MB-231 cells; conditions: various concentrations, serum free medium, FIGS. 11a, 11b
Description: as §2

IC50 ([1]; Homo sapiens, MDA-MB-231 cells, MTT result, serum free medium, BioStat statistical program) [mg/L] | IC50 value ([1]; MDA-MB-231 cells, MTT result, serum free medium, BioStat statistical program) [mg/L] | SMILES | effect on proliferation of MDA-MB-231 cells (percentage of alive cancer cell) [1] | formation of DNA fragments (apoptosis marker) [2] | BCl2 mRNA expression [3] | Bax mRNA level [4]
36.9 (≈ 142 µM) | – | COc1cc(O)c(C(=O)c2ccc(O)cc2)c(O)c1 [E2.2, 2,4′,6-trihydroxy-4-methoxybenzophenone] | anti proliferation effect | apoptosis inducer effect | downregulation | upregulation
– | 65.80 (≈ 156 µM) | COc1cc(O)c(C(=O)c2ccc(O)cc2)c(O[C@@H]2O[C@H](CO)[C@@H](O)[C@H](O)[C@H]2O)c1 [F1, 4′,6-di-hydroxy-4-methoxybenzophenone-2-O-β-D-glycopyranoside] | anti proliferation effect | – | – | –
